Source: patent US20060069132A1, “Azolecarboxamide herbicides” (priority 2004, published 2006)

Assays:
barnyardgrass = test: Test A pre-/postemergence herbicide test; assay type: in vivo, Echinochloa crus-galli
Procedure, shortened: (§1)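 Both application timings were run together: directed soil spray over freshly planted seeds in sandy loam, and runoff spray onto 2–10 cm seedlings. Evaluation after ~10 days in greenhouse used a 0–100 visual scale versus untreated controls.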

large crabgrass [1] = test: Test A pre-/postemergence herbicide test; assay type: in vivo, Digitaria sanguinalis
Procedure, shortened: as §1

giant foxtail [2] = test: Test A pre-/postemergence herbicide test; assay type: in vivo, Setaria faberi
Procedure, shortened: as §1

bermudagrass = test: Test C pre-/postemergence herbicide test; assay type: in vivo, Cynodon dactylon; details: for Plant response rating, Bermudagrass: preemergence
Procedure, shortened: (§2)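 Emerged plants at the 1- to 4-leaf stage (2–18 cm), or freshly planted seeds, received test chemicals in a non-phytotoxic solvent mixture with surfactant. Response was visually scored against controls after 12 to 14 days in the greenhouse, on a 0 (no effect) to 100 (complete control) scale.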

large crabgrass [3] = test: Test C pre-/postemergence herbicide test; assay type: in vivo, Digitaria sanguinalis; details: preemergence
Procedure, shortened: as §2

giant foxtail [4] = test: Test C pre-/postemergence herbicide test; assay type: in vivo, Setaria faberi; details: preemergence
Procedure, shortened: as §2

kochia = test: Test C pre-/postemergence herbicide test; assay type: in vivo, Kochia scoparia; details: preemergence
Procedure, shortened: as §2

lambsquarters = test: Test C pre-/postemergence herbicide test; assay type: in vivo, Chenopodium album; details: preemergence
Procedure, shortened: as §2

soybean = test: Test C pre-/postemergence herbicide test; assay type: in vivo, Glycine max; details: preemergence
Procedure, shortened: as §2

[5] = tested on: common (oilseed) sunflower; test: Test C pre-/postemergence herbicide test; assay type: in vivo, Helianthus annuus; details: preemergence
Procedure, shortened: as §2

[6] = Postemergence, 500 g ai/ha, 0 to 100 scale, 0 no effect, 100 complete control
[7] = Postemergence, 2000 g ai/ha, 0 to 100 scale, 0 no effect, 100 complete control
[8] = Preemergence, 2000 g ai/ha, visual rating, 0 to 100 scale (0 no effect, 100 complete control)
[9] = preemergence, 500 g ai/ha, visual injury, 0 to 100 scale (0 no effect, 100 complete control)
[10] = 125 g ai/ha, scale 0 (no effect) to 100 (complete control), visual, 12 to 14 days
[11] = 500 g ai/ha, scale 0 to 100 (0 no effect, 100 complete control), visual, 12 to 14 days

CCNC(=O)c1cccc(NC(=O)c2sc(C(C)(C)C)nc2CC)n1 [Compound 213]
Barnyardgrass plant response rating (barnyardgrass; [6]): 25 | Plant response rating, Barnyardgrass (barnyardgrass; [7]): 45 | Barnyardgrass plant response rating (barnyardgrass; [8]): 70 | Barnyardgrass plant response rating (barnyardgrass; [9]): 40 | Crabgrass, Large plant response rating (large crabgrass [1]; [6]): 20 | Plant response rating, Crabgrass, Large (large crabgrass [1]; [7]): 30 | Crabgrass, Large plant response rating (large crabgrass [1]; [8]): 95 | Crabgrass, Large plant response rating (large crabgrass [1]; [9]): 55 | Foxtail, Giant plant response rating (giant foxtail [2]; [6]): 20 | Plant response rating, Foxtail, Giant (giant foxtail [2]; [7]): 25 | Foxtail, Giant plant response rating (giant foxtail [2]; [8]): 85 | Foxtail, Giant plant response rating (giant foxtail [2]; [9]): 60 | Plant response rating, Bermudagrass (bermudagrass; 62 g ai/ha, scale 0 to 100, 0 no effect, 100 complete control): 50 | Plant response rating, Bermudagrass (bermudagrass; [10]): 60 | Plant response rating, Bermudagrass (bermudagrass; 250 g ai/ha, scale 0-100): 80 | Bermudagrass plant response rating (bermudagrass; Preemergence, 500 g ai/ha, scale 0 to 100, 0 no effect, 100 complete control): 90 | Plant response rating, Crabgrass, Large (large crabgrass [3]; 62 g ai/ha, scale 0 to 100): 0 | Plant response rating, Crabgrass, Large (large crabgrass [3]; [10]): 50 | Plant response rating, Crabgrass, Large (large crabgrass [3]; 250 g ai/ha, scale 0-100): 100 | Plant response rating, Crabgrass, Large (large crabgrass [3]; [11]): 100 | Plant response rating, Foxtail, Giant (giant foxtail [4]; 62 g ai/ha, scale 0 to 100): 30 | Plant response rating, Foxtail, Giant (giant foxtail [4]; [10]): 50 | Plant response rating, Foxtail, Giant (giant foxtail [4]; 250 g ai/ha, scale 0-100): 95 | Plant response rating, Foxtail, Giant (giant foxtail [4]; [11]): 100 | Plant response rating, Kochia (kochia; [10]): 85 | Plant response rating, Kochia (kochia; 250 g ai/ha, scale 0-100): 100 | Plant response rating, Kochia (kochia; [11]): 100 | Plant response rating, Lambsquarters (lambsquarters; 62 g ai/ha, scale 0 to 100): 80 | Plant response rating, Lambsquarters (lambsquarters; [10]): 95 | Plant response rating, Lambsquarters (lambsquarters; 250 g ai/ha, scale 0-100): 100 | Plant response rating, Lambsquarters (lambsquarters; [11]): 100 | Plant response rating, Soybean (soybean; 62 g ai/ha, scale 0 to 100): 0 | Plant response rating, Soybean (soybean; [10]): 0 | Plant response rating, Soybean (soybean; 250 g ai/ha, scale 0-100): 0 | Plant response rating, Soybean (soybean; [11]): 0 | Plant response rating, Sunflower ([5]; 62 g ai/ha, scale 0 to 100): 0 | Plant response rating, Sunflower [5, 10]: 0 | Plant response rating, Sunflower ([5]; 250 g ai/ha, scale 0-100): 0 | Plant response rating, Sunflower [5, 11]: 0
